The experiment concerns the target T1, glucocorticoid receptor recombinant human protein, ligand binding domain (LBD) (Homo sapiens, UniProt P04150).
T1 construct: purchased Thermo Fisher Scientific A15668
T1 sequence (P04150 524-758 limits assumed): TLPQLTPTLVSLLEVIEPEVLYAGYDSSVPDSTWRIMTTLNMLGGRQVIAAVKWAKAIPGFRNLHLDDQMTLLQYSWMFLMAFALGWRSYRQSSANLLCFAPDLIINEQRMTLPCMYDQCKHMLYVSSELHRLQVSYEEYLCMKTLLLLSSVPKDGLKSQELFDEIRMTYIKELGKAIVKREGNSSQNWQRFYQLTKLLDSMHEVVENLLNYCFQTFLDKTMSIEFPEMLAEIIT
The experiment is described as follows: nuclear receptor cofactor recruitment peptide array (70 coregulator peptides), ligand induced cofactor peptide interaction profiling. In kind it is biochemical. The method, then:
Interactions between the glucocorticoid receptor ligand binding domain and the selected drugs for repurposing and coregulator peptides were determined using the method as described by Zalachoras et al 2013^xxvii Each peptide array consisting of 70 coregulator peptides as described in table 1 were incubated with a reaction mixture of 1 nM purified glucocorticoid receptor recombinant human protein, ligand binding domain (LBD), (Thermo Fisher Scientific, cat #A15668), ALEXA488-conjugated anti-GST antibody and buffer F (PV4689, A-11131, and PV4547; Invitrogen). […] For ligand induced cofactor peptide interaction profiling the set of repurposing drugs were tested at a concentration of 0.05 mM compared to solvent (2% DMSO in water). Incubation was performed at 20° C. on the cofactor peptide array. Glucocorticoid receptor binding to each peptide on the array, reflected by fluorescent signal, was quantified by image analysis using R-based software (Precision Medicine Lab). The 70 coregulator peptides used represent a range of coregulator nuclear receptor-boxes known to interact with the glucocorticoid receptor and other nuclear receptors. The binding profiles were generated for glucocorticoid receptor-LBD treated with the repurposing drugs vs cortisol.
The R2 is calculated using the data for each of the 70 cofactor peptides using the same weight.
In this example a weight factor was applied on the log fold change data of example 1 to determine the similarities between the tested repositioning drugs versus cortisol using the coefficient of determination, R2, between the weighted log fold change data of the tested repurposing drug to the positive control, cortisol. […] In this example 14 cofactor peptides were used (table 3).

Dexamethasone [Drug 3]: the “binding to coregulator peptide no 22 NCOA1_1421_1444 compared to the negative control (NC), DMSO” value is given as “increased binding”.

The values are drawn from patent US20240145031A1, “Methods and devices for drug repositioning and drug repurposing as nuclear receptor modulators” (Precision Medicine Lab, priority 2022, published 2024).
